Reference: publication PMC10893631, “Receptor-based pharmacophore modeling, molecular docking, synthesis and biological evaluation of novel VEGFR-2, FGFR-1, and BRAF multi-kinase inhibitors” (BMC Chemistry, 2024)
Where two headings read alike, the source gives them in different places.

Key:
T-47D = experiment: NCI SRB growth inhibition (single dose 10 µM / five-dose); format: cell-based, human; conditions: Homo sapiens, T47D; for inhibition at 10 µM: T-47D (Breast cancer), read-out: GI%; for GI50: T-47D, Breast cancer, five-dose
Protocol: (§1) Screening of cytotoxic activity against a panel of sixty human tumor cell lines The selected compounds by NCI were evaluated for their anticancer activity in a two- stage process. […] Then, the output from the single dose screen is reported as a mean graph. […] Assay protocol. […] For a typical screening experiment, cells are inoculated into 96 well microtiter plates in 100 µL at plating densities ranging from 5000 to 40,000 cells/well depending on the doubling time of individual cell lines. […] After 24 h, two plates of each cell line are fixed in situ with TCA, to represent a measurement of the cell population for each cell line at the time of drug addition (Tz). The experimental drugs are solubilized in dimethyl sulfoxide at 400-fold the desired final maximum test concentration and stored frozen prior to use. At the time of drug addition, an aliquot of frozen concentrate is thawed and diluted to twice the desired final maximum test concentration with complete medium containing 50 µg/mL gentamicin. Additional four, 10-fold or ½ log serial dilutions are made to provide a total of five drug concentrations plus control. Aliquots of 100 mL of these different drug dilutions are added to the appropriate microtiter wells already containing […] of medium, resulting in the required final drug concentrations. […] For adherent cells, the assay is terminated by the addition of cold TCA. […] The supernatant is discarded, and the plates are washed five times with tap water and air dried. Sulforhodamine B (SRB) solution ([…]) at 0.4% (w/v) in 1% acetic acid is added to each well, and plates are incubated for 10 min at room temperature. After staining, unbound dye is removed by washing five times with 1% acetic acid and the plates are air dried. […] Using the seven absorbance measurements [time zero, (Tz), control growth, (C), and test growth in the presence of drug at the five concentration levels (Ti)], the percentage growth is calculated at each of the drug concentrations levels. Percentage growth inhibition is calculated as: [(Ti Tz)/(C–Tz)] x 100 for concentrations for which Ti>/=Tz and [(Ti-Tz)/Tz] x 100 for concentrations for which Ti < Tz. Three dose response parameters are calculated for each experimental agent. […] The drug concentration resulting in total growth inhibition (TGI) is calculated from Ti = Tz. […] Values are calculated for each of these three parameters if the level of activity is reached; however, if the effect is not reached or is exceeded, the value for that parameter is expressed as greater or less than the maximum or minimum concentration tested.

NCI-H322M = experiment: as above; format: cell-based, human; conditions: Homo sapiens; for inhibition at 10 µM: NCI-H322M (Non-small cell lung cancer), read-out: GI%; for GI50: NCI-H322M, Non-small cell lung cancer, five-dose
Protocol: as §1

HL-60(TB) = experiment: as above; format: cell-based, human; conditions: Homo sapiens; for inhibition at 10 µM: HL-60(TB) (Leukemia), read-out: GI%; for GI50: HL-60(TB), Leukemia, five-dose
Protocol: as §1

MDA-MB-468 = experiment: as above; format: cell-based, human; conditions: Homo sapiens; for inhibition at 10 µM: MDA-MB-468 (Breast cancer), read-out: GI%; for GI50: MDA-MB-468, Breast cancer, five-dose
Protocol: as §1

NCI-H460 = experiment: as above; format: cell-based, human; conditions: Homo sapiens; for inhibition at 10 µM: NCI-H460 (Non-small cell lung cancer), read-out: GI%; for GI50: NCI-H460, Non-small cell lung cancer, five-dose
Protocol: as §1

SF-295 = experiment: as above; format: cell-based, human; conditions: Homo sapiens; for inhibition at 10 µM: SF-295 (CNS cancer), read-out: GI%; for GI50: SF-295, CNS cancer, five-dose
Protocol: as §1

SK-MEL-5 = experiment: as above; format: cell-based, human; conditions: Homo sapiens; for inhibition at 10 µM: SK-MEL-5 (Melanoma), read-out: GI%; for GI50: SK-MEL-5, Melanoma, five-dose
Protocol: as §1

LOX IMVI = experiment: as above; format: cell-based, human; conditions: Homo sapiens; for inhibition at 10 µM: LOX IMVI (Melanoma), read-out: GI%; for GI50: LOX IMVI, Melanoma, five-dose
Protocol: as §1

UO-31 = experiment: as above; format: cell-based, human; conditions: Homo sapiens; for inhibition at 10 µM: UO-31 (Renal cancer), read-out: GI%; for GI50: UO-31, Renal cancer, five-dose
Protocol: as §1

DU-145 = experiment: as above; format: cell-based, human; conditions: Homo sapiens; for inhibition at 10 µM: DU-145 (Prostate cancer), read-out: GI%; for GI50: DU-145, Prostate cancer, five-dose
Protocol: as §1

[1] = tested on: NCI panel of 60 tumor cell lines; experiment: NCI SRB growth inhibition, whole panel mean (single dose 10 µM / five-dose); format: cell-based, human; conditions: Homo sapiens; for GI50: mean over NCI cancer cell lines, five-dose
Protocol: as §1

VEGFR-2 = target: T1, VEGFR-2 (Homo sapiens, UniProt P35968); experiment: VEGFR-2 kinase assay kit (BPS), Kinase-Glo Max luminescence; format: biochemical; conditions: VEGFR-2, single dose 10 µM, duplicate, mean ± SD
T1 construct: purchased BPS Biosciences 40325
T1 sequence (P35968 20-1356): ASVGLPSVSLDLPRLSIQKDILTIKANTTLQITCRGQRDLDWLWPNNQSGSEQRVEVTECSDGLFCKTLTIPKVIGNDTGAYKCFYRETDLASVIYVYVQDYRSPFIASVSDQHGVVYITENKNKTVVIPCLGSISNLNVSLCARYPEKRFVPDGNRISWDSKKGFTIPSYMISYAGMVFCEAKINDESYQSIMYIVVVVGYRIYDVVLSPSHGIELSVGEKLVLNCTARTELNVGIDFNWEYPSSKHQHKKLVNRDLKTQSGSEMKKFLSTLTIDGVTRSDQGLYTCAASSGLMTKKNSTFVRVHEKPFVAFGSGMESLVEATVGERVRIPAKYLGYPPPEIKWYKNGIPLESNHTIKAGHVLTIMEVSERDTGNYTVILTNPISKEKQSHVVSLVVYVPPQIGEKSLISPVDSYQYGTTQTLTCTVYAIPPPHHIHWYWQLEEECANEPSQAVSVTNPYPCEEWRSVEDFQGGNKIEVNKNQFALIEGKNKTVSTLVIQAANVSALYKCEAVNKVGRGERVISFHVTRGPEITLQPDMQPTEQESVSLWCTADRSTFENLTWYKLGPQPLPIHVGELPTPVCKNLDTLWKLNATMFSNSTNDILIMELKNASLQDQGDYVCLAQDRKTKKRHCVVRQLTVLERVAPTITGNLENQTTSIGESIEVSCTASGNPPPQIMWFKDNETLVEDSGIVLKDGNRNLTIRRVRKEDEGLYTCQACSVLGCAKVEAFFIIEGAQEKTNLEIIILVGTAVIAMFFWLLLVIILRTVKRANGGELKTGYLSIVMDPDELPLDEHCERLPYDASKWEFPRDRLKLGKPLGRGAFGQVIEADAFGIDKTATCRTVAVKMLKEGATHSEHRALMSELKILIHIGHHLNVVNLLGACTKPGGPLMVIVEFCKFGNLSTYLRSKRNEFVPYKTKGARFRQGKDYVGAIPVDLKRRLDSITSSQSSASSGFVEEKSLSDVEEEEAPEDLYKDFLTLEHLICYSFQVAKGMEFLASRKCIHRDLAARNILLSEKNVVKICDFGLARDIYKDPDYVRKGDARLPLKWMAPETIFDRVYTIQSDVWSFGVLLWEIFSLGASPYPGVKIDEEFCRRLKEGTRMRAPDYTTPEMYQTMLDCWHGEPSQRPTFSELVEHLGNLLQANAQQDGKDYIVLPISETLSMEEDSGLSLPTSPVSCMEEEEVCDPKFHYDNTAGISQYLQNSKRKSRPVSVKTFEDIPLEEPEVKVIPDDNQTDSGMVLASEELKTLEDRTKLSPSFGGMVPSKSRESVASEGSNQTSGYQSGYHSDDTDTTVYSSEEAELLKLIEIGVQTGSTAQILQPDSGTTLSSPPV
Protocol: 2. Biochemical kinase assay procedure
The inhibitory activity against different kinases was determined using kinase kits […]
from BPS Biosciences and kinase-Glo Max luminescence kinase assay kit (Promega).
The assay was carried out according to the protocol provided by the manufacturer. A stock solution of the synthesized derivatives in 100% DMSO was prepared. Subsequently, the compounds were diluted to 10% DMSO.
A master mixture was prepared according to the number of wells. For VEGFR-2 and FGFR-1 biochemical assays each well include 6 μl of 5x Kinase Buffer 1 + 1 μl of 500 μM ATP + 1 μl of PTK Substrate (Poly-Glu,Tyr 4:1) (10 mg/ml) + 17 μl of distilled water. For BRAF assay each well include 6 μl of 5x Kinase Buffer 1 + 1 μl of ATP (500 μM) + 10 μl of 5X Raf substrate + 8 μl of distilled water. 1x Kinase buffer 1 was prepared by mixing 600 μl of 5x Kinase Buffer 1 with 2400 μl water to give 3 mL. Kinases were thawed on ice and were diluted with 1x Kinase Buffer 1.
To start the biochemical reaction, 25 µL of the master mixture was added to each well in 96 well plate. 5 µL of 10% DMSO was added to positive control wells and blank wells. 5 µL of diluted inhibitor was added to each well labelled with the test inhibitor so that the final concentration of DMSO is 1% in all reactions. Then 20 µL of (1 ng / μl) in case of VEGFR-2 and FGFR-1 or (2.5 ng/μl) in case of BRAF in 1x kinase buffer was added to positive control wells and wells labelled with the inhibitor, while 20 µL 1x kinase buffer 1 was added to the […]
The plate was incubated at 30 °C for 45 min. Subsequently, 50 μl of Kinase-Glo Max luminescence reagent was added to each well and the plate was covered with aluminum foil and incubated at room temperature 15 min. Finally, the luminescence was recorded using multimode microplate reader. Kinase activity assays were performed in duplicate at each […]
The luminescence data were analyzed as follows. The difference between luminescence intensities in the absence of kinase (Lut) and in the presence of kinase (Luc) was defined as 100 % activity (Lut – Luc). Using luminescence signal (Lu) in the presence of the compound, % activity was calculated as: % activity = {(Lut - Lu)/(Lut - Luc)}×100%. The […]
concentration of the test compounds required to reduce the kinase activity by 50% was determined from dose-response curves and recorded as their IC50. […]

[2] = mean over NCI 60 cell lines, > 100% = lethal effect, read-out: mean growth inhibition % (GI%)
[3] = mean over NCI panel of 60 tumor cell lines, read-out: Mean growth inhibition %

For `COc1cc(C=NNC(=O)c2ccc3[nH]c(-c4ccc(Cl)cc4)nc3c2)cc(OC)c1OC` [8u, 2-(4-Chlorophenyl)-N'-(3,4,5-trimethoxybenzylidene)-1H-benzo[d]imidazole-5-carbohydrazide], the inhibition at 10 µM (T-47D) was greater than 100%, the GI50 (T-47D) was 3.48 µM and the inhibition at 10 µM (NCI-H322M) was 96.1%. For the same compound, the GI50 (NCI-H322M) was 8.29 µM, the inhibition at 10 µM (HL-60(TB)) was 67.8% and the GI50 (HL-60(TB)) was 3.9 µM. The inhibition at 10 µM (MDA-MB-468) was greater than 100%, the GI50 (MDA-MB-468) was 3.27 µM and the inhibition at 10 µM (NCI-H460) was greater than 100%. For the same compound, the GI50 (NCI-H460) was 3.19 µM, the inhibition at 10 µM (SF-295) was greater than 100% and the GI50 (SF-295) was 4.18 µM. For the same compound, the inhibition at 10 µM (SK-MEL-5) was greater than 100%, the GI50 (SK-MEL-5) was 2.83 µM and the inhibition at 10 µM (LOX IMVI) was greater than 100%. For the same compound, the GI50 (LOX IMVI) was 4.67 µM, the inhibition at 10 µM (UO-31) was 41.1% and the GI50 (UO-31) was greater than 100 µM. It also gave an inhibition at 10 µM (DU-145) greater than 100%, a GI50 (DU-145) of 6.77 µM and an inhibition at 10 µM [1, 2] greater than 100%. The GI50 [1] was 7.98 µM, the inhibition at 10 µM [1, 3] was greater than 100% and the inhibition at 10 µM (VEGFR-2) was 80 ± 3.98%.

`O=C(NN=Cc1ccccc1O)c1ccc2[nH]c(-c3ccc(Cl)cc3)nc2c1` [8o, 2-(4-Chlorophenyl)-N'-(2-hydroxybenzylidene)-1H-benzo[d]imidazole-5-carbohydrazide] was tested, and the GI50 (T-47D) was 1.48 µM, the inhibition at 10 µM (NCI-H322M) was 70.2% and the GI50 (NCI-H322M) was 1.38 µM. The inhibition at 10 µM (HL-60(TB)) was 47.1%, the GI50 (HL-60(TB)) was 0.31 µM and the inhibition at 10 µM (MDA-MB-468) was greater than 100%. For the same compound, the GI50 (MDA-MB-468) was 1.51 µM, the inhibition at 10 µM (NCI-H460) was greater than 100% and the GI50 (NCI-H460) was 0.25 µM. For the same compound, the inhibition at 10 µM (SF-295) was greater than 100%, the GI50 (SF-295) was 1.6 µM and the inhibition at 10 µM (SK-MEL-5) was greater than 100%. For the same compound, the GI50 (SK-MEL-5) was 0.51 µM, the inhibition at 10 µM (LOX IMVI) was greater than 100% and the GI50 (LOX IMVI) was 0.43 µM. For the same compound, the inhibition at 10 µM (UO-31) was greater than 100%, the GI50 (UO-31) was 0.31 µM and the inhibition at 10 µM (DU-145) was greater than 100%. For the same compound, the GI50 (DU-145) was 1.36 µM, the inhibition at 10 µM [1, 2] was greater than 100% and the GI50 [1] was 5.44 µM. For the same compound, the inhibition at 10 µM [1, 3] was greater than 100% and the inhibition at 10 µM (VEGFR-2) was 22.3 ± 1.95%.

In the case of `COc1ccc(-c2nc3cc(C(=O)NN=Cc4cccc(OC)c4O)ccc3[nH]2)cc1` [8k, N'-(2-Hydroxy-3-methoxybenzylidene)-2-(4-methoxyphenyl)-1H-benzo[d]imidazole-5-carbohydrazide], the inhibition at 10 µM (T-47D) is reported as 95%, the GI50 (T-47D) is reported as 3.48 µM and the inhibition at 10 µM (NCI-H322M) is reported as 95.9%. It also gave a GI50 (NCI-H322M) of 3.04 µM, an inhibition at 10 µM (HL-60(TB)) greater than 100% and a GI50 (HL-60(TB)) of 7.66 µM. The inhibition at 10 µM (MDA-MB-468) was greater than 100%, the GI50 (MDA-MB-468) was 1.95 µM and the inhibition at 10 µM (NCI-H460) was greater than 100%. It also gave a GI50 (NCI-H460) of 3.27 µM, an inhibition at 10 µM (SF-295) of 96.4% and a GI50 (SF-295) of 2.48 µM. The inhibition at 10 µM (SK-MEL-5) was greater than 100%, the GI50 (SK-MEL-5) was 2.86 µM and the inhibition at 10 µM (LOX IMVI) was greater than 100%. It also gave a GI50 (LOX IMVI) of 2.34 µM, an inhibition at 10 µM (UO-31) of 83.2% and a GI50 (UO-31) of 3.34 µM. For the same compound, the inhibition at 10 µM (DU-145) was 85.1%, the GI50 (DU-145) was 5.06 µM and the inhibition at 10 µM [1, 2] was greater than 100%. The GI50 [1] was 7.7 µM, the inhibition at 10 µM [1, 3] was greater than 100% and the inhibition at 10 µM (VEGFR-2) was 69.5 ± 4.37%.
